Test results from US6114537A, “Process for scavenging thiols” (Apotex Inc., priority 1997, dated 2000).

Columns and labels:
[1] = tested on: gastric acid secretion, isolated gastric glands; experiment: In vitro inhibition of gastric acid secretion in isolated mouse gastric glands (14C-aminopyrine accumulation); assay type: cell-based; settings: 100 μM
Protocol: Acid secretion is measured indirectly by the accumulation of the weak base ^14 C-aminopyrine in the isolated murine gastric glands of mouse. The assay is performed in polypropylene eppendorf tubes containing 0.5 mL of resuspended mouse gastric glands. In addition, tubes contain the tested drug, acid secretagogues (e.g. histamine, di-butyryl cyclic AMP (cAMP), carbachol) and ^14 C-aminopyrine. Tubes are incubated for 60 min. at 37° C. and continuously rotated. The reaction is stopped by centrifugation of the gland suspension for five min. at 1500 g. Supernatant is aspirated leaving the pellet containing intact gastric glands. The pellet is washed extensively and digested overnight in 1 mL of Protosol (Amersham). After neutralisation with acetic acid and addition of scintillation fluid, the radioactivity is counted in a beta-counter (Beckman). The amount of radioactivity trapped in the pellet corresponds directly with the amount of acid being secreted. Each experimental point is done in triplicate. In each experiment, energy independent consumption was estimated with 0.1 mM of dinitrophenol and basal acid secretion in the absence of acid stimulants. These values were then subtracted from corresponding results in order to calculate basal or secretagogue stimulated acid secretion. […] Each experiment is repeated a number of times and all results are expressed as a % of the maximum stimulation.

[2] = Acid stability in 6 molar hydrochloric acid; assay type: physicochemical; settings: room temperature
Protocol: Acid stability of 7-methoxy-3-[(4-methoxy-3,5-dimethyl-2-pyridyl)oxomethyl]-1,2,4-thiadiazolo[4,5-a]benzimidazole.
To examine acid stability of the captioned compound, the compound was dissolved in a minimum volume of methanol and the resulting solution was added to a 6 molar solution of hydrochloric acid.

Solubility in water = assay type: physicochemical
Gastric Acid Secretions [3] = experiment: Effects on (meal-stimulated) gastric acid secretion in rats; assay type: in vivo, Sprague-Dawley rats
Protocol: Effects of compounds of Formula I on Gastric Acid Secretions in Rats
Fasted, adult (140-240 g), male, Sprague-Dawley rats were fasted for 24 h from food, but not water, and then treated by oral gavage with 1 to 1.5 mL total volume of compound of Formula I (300 μmmol/Kg) on different days. Two hours later, rats were anesthetized with a combination of pentobartital and thiopental, the abdomen was opened and the pylorus was ligated, and tracheal, gastric, and peripheral venous canulas were placed. The stomachs were lavaged with 10 mL 0.9% saline every 10 min. for 30 min and the gastric effluent collected in receptacles to determine the basal acid secretion. Acid output was determined in each gastric effluent sample by back-titration to pH 7.0 using 0.02M NaOH. Then, 5 mL of an 8% peptone meal (pH 5.5) was instilled into the stomachs, mixed, and drained after 10 min each time for 2 hours. Acid output was determined in each gastric effluent containing the peptone meal by back-titration to pH 5.5 using 0.02 M NaOH.

Gastric Acid Secretions [4] = experiment: Effects on gastric acid secretion in rats, dose-dependent study (histamine-stimulated); assay type: in vivo, Sprague-Dawley rats; settings: 3, 30, 300 μmol/kg doses, oral, anesthetized rats; histamine 5 mg/kg i.v.
Protocol: Effects of compounds of Formula I on Gastric Acid Secretions in Rats (Dose-dependent study)
Fasted, adult (140-240 g), male, Sprague-Dawley rats were fasted for 24 h from food, but not water, and then treated by oral gavage with 1 to 1.5 mL total volume of 4 different doses (0.3, 3, 30, and 300 μmol/kg) of each compound on different days. Two hours later, rats were anesthetized with a combination of pentobartital and thiopental, the abdomen was opened and the pylorus was ligated, and tracheal, gastric, and peripheral venous canulas were placed. The stomachs were lavaged with 10 mL 0.9% saline every 10 min. for 30 min and the gastric effluent collected in receptacles. Acid output was determined in each gastric effluent sample by back-titration to pH 7.0 using 0.02M NaOH. Then, 5 mL of an […] meal (pH 5.5) was instilled into the stomachs, mixed, and drained after 10 min each time for 2 hours. Acid output was determined in each gastric effluent sample by back-titration to pH 7.0 using 0.02 M NaOH. After measuring basal acid output for at least 30 minutes, acid output was then measured during a 2 h intravenous infusion of histamine (5 mg/kg).

[5] = Reaction with phenethyl mercaptan (thiol model for the H+/K+-ATPase); assay type: physicochemical; settings: in methanol
Excerpt: The reactivity of the compounds in the process of the invention can be illustrated by means of their reaction with phenethyl mercaptan. This is generally illustrated in FIG. 1 of the accompanying drawings, with R of the thiol reagent representing a phenethyl group. In addition, based on prior art (Im et al., J. Biol. Chem., 1985, 260, 4591; Sturm et al., J. Org. Chem., 1987, 52, 4573; Lorentzon et al., Biochim., Biophys. Acta, 1985, 817, 25), phenethylmercaptan is useful as a model for the H^+ /K^+ -ATPase to examine the reactivity of compounds towards thiol group(s) of the enzyme. […] The compound of formula XI reacts with an additional mole of phenethyl mercaptan to produce a compound of formula XII which decomposes to give compounds of formula XIII and XIV.
A minimum of two moles of phenethyl mercaptan for 1 mole of substrate is required to effect the ring opening of 1,2,4-thiadiazolo[4,5-a]benzimidazoles to give the compound of formula XII. In general, the ring opening reaction is slow with two moles of phenethyl mercaptan. The reaction rate increases rapidly when a large excess of phenethyl mercaptan (for example, 25 fold) is used. […] This degradation of the trapped thiol intermediate to form the disulfide has also been observed in the chemical model for the H^+ /K^+ -ATPase (Lindberg et al., J. Med. Chem., 1986, 29, 1329). […]

Compound: CN1CCN(c2nsc3nc4ccccc4n23)CC1.Cl.Cl [3-(4-methyl-1-piperazinyl)-1,2,4-thiadiazolo [4,5-a]benzimidazole dihydrochloride]
- inhibition of cAMP stimulated acid secretion ([1]; cAMP stimulated): completely inhibited
- inhibition of histamine stimulated acid secretion ([1]; histamine stimulated): completely inhibited

Compound: COc1ccc2c(c1)nc1snc(C(=O)c3ncc(C)c(OC)c3C)n12 [7-methoxy-3-[(4-methoxy-3,5-dimethyl-2-pyridyl)oxomethyl]-1,2,4-thiadiazolo[4,5-a]benzimidazole]
- recovery after stirring in acid ([2]; 48 hours): totally recovered
- acid stability [2]: very stable in acid
- solubility in water (Solubility in water): limited solubility in water
- inhibition of meal-stimulated acid secretion (Gastric Acid Secretions [3]; 300 μmmol/Kg, rats, oral): significant (p<0.05) inhibition
- level of acid output, peptone stimulated (Gastric Acid Secretions [3]; after 1 h, oral gavage, rats, 300 μmmol/Kg, vehicle 160 numol/30 min): 20 μmmol/30 min
- suppression of gastric acid secretion in animal model (Gastric Acid Secretions [3]; animal model): active in the suppression of gastric acid secretion
- inhibition of histamine-stimulated acid secretion (Gastric Acid Secretions [4]): significant (p<0.05) inhibition

Compound: CN(C)c1nsc2nc3ccccc3n12 [Me2 N, 3-(dimethylamino)-1,2,4-thiadiazolo[4,5-a]benzimidazole]
- time to complete reaction with phenethyl mercaptan [5]: ≤ 1 min

Compound: COc1nsc2nc3ccccc3n12 [MeO, 3-methoxy-1,2,4-thiadiazolo[4,5-a]benzimidazole]
- time to complete reaction with phenethyl mercaptan [5]: ≤ 1 min
